From patent US9034905B2, “Synergistic microbicidal combinations” (Rohm and Haas Company, priority 2003, dated 2015)
Read-outs that look alike come from different tables or passages of the source.

Legend:
Type in all cases: cell-based
[1] = tested on: Aspergillus niger (A. niger—ATCC 16404); assay: Synergy test, microtiter plate high resolution MIC assay, mold; details: for SI (synergy index, Qa/QA+Qb/QB): <1 synergism, 1 additivity, >1 antagonism; for MIC: Aspergillus niger, read-out: MIC of the microbicide acting alone (QA or QB)
Protocol: (§1) When the sum of Qa/QA and Qb/QB is greater than one, antagonism is indicated. […] The lower the SI, the greater the synergy shown by that particular mixture. The minimum inhibitory concentration (MIC) of a microbicide is the lowest concentration tested under a specific set of conditions that prevents the growth of added microorganisms.
(§2) Synergy tests were conducted using standard microtiter plate assays with media designed for optimal growth of the test microorganism. Minimal salt medium supplemented with 0.2% glucose and 0.1% yeast extract (M9GY medium) was used for testing bacteria; Potato Dextrose Broth (PDB medium) was used for testing yeast and mold. In this method, a wide range of combinations of microbicides was tested by conducting high resolution MIC assays in the presence of various concentrations of MI. High resolution MICs were determined by adding varying amounts of microbicide to one column of a microtitre plate and doing subsequent ten-fold dilutions using an automated liquid handling system to obtain a series of endpoints ranging from 2 ppm to 10,000 ppm active ingredient. […] The bacteria were used at a concentration of about 5×10^6 bacteria per mL and the yeast and mold at 5×10^5 fungi per mL. These microorganisms are representative of natural contaminants in many consumer and industrial applications. […] (yeast and mold) or 30° C. (bacteria).
(§3) In each test, First Component (A) was MI and the Second Component (B) was the other commercial microbicide.

[2] = tested on: Candida albicans (C. albicans—ATCC 10231); assay: Synergy test, microtiter plate high resolution MIC assay, yeast; details: for SI (synergy index, Qa/QA+Qb/QB): <1 synergism, 1 additivity, >1 antagonism; for MIC: Candida albicans, read-out: MIC of the microbicide acting alone (QA or QB)
Protocol: as §1, §2, §3

[3] = tested on: Staphylococcus aureus (S. aureus—ATCC #6538); assay: Synergy test, microtiter plate high resolution MIC assay, Gram (+) bacteria; details: for SI (synergy index, Qa/QA+Qb/QB): <1 synergism, 1 additivity, >1 antagonism; for MIC: Staphylococcus aureus
Protocol: as §1, §2, §3

[4] = tested on: Pseudomonas aeruginosa (P. aeruginosa—ATCC #9027); assay: Synergy test, microtiter plate high resolution MIC assay, Gram (−) bacteria; details: for SI (synergy index, Qa/QA+Qb/QB): <1 synergism, 1 additivity, >1 antagonism; for MIC: Pseudomonas aeruginosa, read-out: MIC of the microbicide acting alone (QA or QB)
Protocol: as §1, §2, §3

[5] = ATCC16404, 168 h, A. niger, 1 week, PDB medium, 25° C.
[6] = ATCC10231, C. albicans, 72 hours, PDB medium, 25° C.
[7] = ATCC6538, S. aureus, 72 hours, M9GY medium, 30° C., read-out: MIC of the microbicide acting alone (QA or QB)
[8] = ATCC9027, P. aeruginosa, 24 hours, M9GY medium, 30° C.
[9] = ATCC6538, 72 h, read-out: MIC of the microbicide acting alone (QA or QB), S. aureus, 72 hours, M9GY medium, 30° C.
[10] = ATCC6538, S. aureus, 24 hours, M9GY medium, 30° C., read-out: MIC of the microbicide acting alone (QA or QB)
[11] = ATCC9027, P. aeruginosa, 48 hours, M9GY medium, 30° C.

Molecule | SI (synergy index, Qa/QA+Qb/QB) ([1]; A. niger, 1 week) | MIC [1, 5] [µg/mL] | SI (synergy index, Qa/QA+Qb/QB) ([2]; C. albicans, 72 hours) | MIC [2, 6] [µg/mL] | SI (synergy index, Qa/QA+Qb/QB) ([3]; S. aureus, 72 hours) | MIC [3, 7] [µg/mL] | SI (synergy index, Qa/QA+Qb/QB) ([4]; P. aeruginosa, 24 hours) | MIC [4, 8] [µg/mL] | SI (synergy index, Qa/QA+Qb/QB) ([2]; C. albicans, 48 hours) | SI (synergy index, Qa/QA+Qb/QB) ([4]; P. aeruginosa, 72 hours) | other results
N#CCCC(Br)(C#N)CBr (stereo not shown) [1,2-dibromo-2,4-dicyanobutane] | 1.00 | 100 | 1.00 | 500 | 1.00 | 1000 | 1.00 | 800 |  |  | 
CC1(C)C(=O)N(CO)C(=O)N1CO [1,3-dimethylol-5,5-dimethylhydantoin] | 1.00 | 3000 | 1.00 | 3000 | 1.00 | 200 | 1.00 | 300 |  |  | 
Cn1sccc1=O [2-methyl-3-isothiazolone] | 1.00 |  | 1.00 |  | 1.00 |  | 1.00 |  | 1.00 | 1.00 | SI (synergy index, Qa/QA+Qb/QB) ([1]; A. niger, 72 hours): 1.00; SI (synergy index, Qa/QA+Qb/QB) ([1]; A. niger, 96 hours): 1.00; MIC ([1]; ATCC16404, 72 h): 300 µg/mL; MIC ([1]; ATCC16404, 96 h): 300 µg/mL; MIC ([1]; ATCC16404, 168 h): 300 µg/mL; MIC ([2]; ATCC10231, 48 h): 200 µg/mL; MIC ([2]; ATCC10231, 72 h): 200 µg/mL; SI (synergy index, Qa/QA+Qb/QB) ([3]; S. aureus, 24 hours): 1.00; MIC ([3]; ATCC6538, 24 h, read-out: MIC of the microbicide acting alone (QA or QB), S. aureus, 24 hours, M9GY medium, 30° C.): 40 µg/mL; MIC [3, 9]: 60 µg/mL; SI (synergy index, Qa/QA+Qb/QB) ([4]; P. aeruginosa, 48 hours): 1.00; MIC ([4]; ATCC9027, 24 h): 15 µg/mL; MIC ([4]; ATCC9027, 48 h): 20 µg/mL; MIC ([4]; ATCC9027, 72 h): 20 µg/mL
O=C(O)c1ccccc1 [benzoic acid] | 1.00 |  |  |  | 1.00 |  |  |  | 1.00 | 1.00 | MIC ([1]; ATCC16404, 168 h): 10000 µg/mL; MIC ([2]; ATCC10231, 48 h): 5000 µg/mL; MIC [3, 9]: 6000 µg/mL; MIC ([4]; ATCC9027, 72 h): 6000 µg/mL
OCc1ccccc1 [benzyl alcohol] |  |  |  |  | 1.00 | 8000 | 1.00 | 6000 | 1.00 |  | SI (synergy index, Qa/QA+Qb/QB) ([1]; A. niger, 72 hours): 1.00; MIC ([1]; ATCC16404, A. niger, 72 hours, PDB medium, 25° C.): 8000 µg/mL; MIC ([2]; ATCC10231, C. albicans, 48 hours, PDB medium, 25° C.): 6000 µg/mL
O=C(O)CC(O)(CC(=O)O)C(=O)O [citric acid] |  | 10000 |  | 10000 |  |  |  |  |  |  | MIC [3, 10]: 4000 µg/mL; MIC [4, 11]: 6000 µg/mL
CC(C)(C)C(=O)C(Oc1ccc(Cl)cc1)n1ccnc1 (stereo not shown) [climbazole] |  |  | 1.00 | 300 |  |  |  |  |  |  | SI (synergy index, Qa/QA+Qb/QB) ([3]; S. aureus, 24 hours): 1.00; MIC [3, 10]: 2000 µg/mL
C/C=C/C=C/C(=O)O [sorbic acid] |  |  | 1.00 | 400 | 1.00 | 10000 |  |  |  |  | SI (synergy index, Qa/QA+Qb/QB) ([1]; A. niger, 96 hours): 1.00; MIC ([1]; ATCC16404, A. niger, 96 hours, PDB medium, 25° C.): 4000 µg/mL; SI (synergy index, Qa/QA+Qb/QB) ([4]; P. aeruginosa, 48 hours): 1.00; MIC [4, 11]: 10000 µg/mL
zinc pyrithione | 1.00 |  |  |  | 1.00 |  |  |  | 1.00 | 1.00 | MIC of the microbicide acting alone (QA or QB) ([1]; A. niger, 1 week, PDB medium, 25° C.): 80 ppm; MIC of the microbicide acting alone (QA or QB) ([2]; C. albicans, 48 hours, PDB medium, 25° C.): 80 ppm; MIC of the microbicide acting alone (QA or QB) ([3]; S. aureus, 72 hours, M9GY medium, 30° C.): 20 ppm; MIC of the microbicide acting alone (QA or QB) ([4]; P. aeruginosa, 72 hours, M9GY medium, 30° C.): 200 ppm
